Data as given in ChEMBL document CHEMBL1201862, “PubChem BioAssay data set” (2004).
Where “and” joins values, the source holds several entries; their conditions need not be identical. Identical values can stand only once.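 1) Cells in 96-well plates. 2) Compound, 48 h, 5 concentrations. 3) Linear interpolation between surrounding doses. 4) Unreached endpoint = highest concentration. GI50 marks 50% less growth.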 Calls of active or inactive are those of the source. No stated cut-off is given here; in the data, active = GI50 up to about 1.1 µM and inactive = higher.

Legend:
Experiment in all cases: NCI anticancer screen, dose series, 48 h
KM12 = tested on: KM12
NCI-H460 = tested on: NCI-H460
SF-268 = tested on: SF-268
K562 = tested on: K562
SR = tested on: SR
OVCAR-8 = tested on: OVCAR-8
Malme-3M = tested on: Malme-3M
SK-MEL-28 = tested on: SK-MEL-28
SK-MEL-5 = tested on: SK-MEL-5
IGROV-1 = tested on: IGROV-1
HL-60 = tested on: HL-60
SW-620 = tested on: SW-620
CAKI-1 = tested on: CAKI-1
COLO 205 = tested on: COLO 205
MDA-MB-435 = tested on: MDA-MB-435
EKVX = tested on: EKVX
SNB-75 = tested on: SNB-75
MDA-N = tested on: MDA-N
HT-29 = tested on: HT-29
NCI-H522 = tested on: NCI-H522
CCRF-CEM = tested on: CCRF-CEM
NCI/ADR-RES = tested on: NCI/ADR-RES
HCC 2998 = tested on: HCC 2998
UACC-257 = tested on: UACC-257
OVCAR-3 = tested on: OVCAR-3
MOLT-4 = tested on: MOLT-4
SK-MEL-2 = tested on: SK-MEL-2
SN12C = tested on: SN12C
NCI-H23 = tested on: NCI-H23
LOX IMVI = tested on: LOX IMVI
DU-145 = tested on: DU-145
M14 = tested on: M14
A549 = tested on: A549
T47D = tested on: T47D
MCF7 = tested on: MCF7
HCT-15 = tested on: HCT-15
OVCAR-4 = tested on: OVCAR-4
TK-10 = tested on: TK-10
SF-295 = tested on: SF-295
Hs-578T = tested on: Hs-578T
U-251 = tested on: U-251
ACHN = tested on: ACHN
786-0 = tested on: 786-0
HOP-62 = tested on: HOP-62
HCT-116 = tested on: HCT-116
OVCAR-5 = tested on: OVCAR-5
RPMI-8226 = tested on: RPMI-8226
A498 = tested on: A498
UO-31 = tested on: UO-31
PC-3 = tested on: PC-3
SNB-19 = tested on: SNB-19
HOP-92 = tested on: HOP-92
SK-OV-3 = tested on: SK-OV-3
RXF 393 = tested on: RXF 393

For `CCc1c(C)c(C#N)c(=S)n(C2OC(COC(C)=O)C(OC(C)=O)C(OC(C)=O)C2OC(C)=O)c1C` (centres undefined), the GI50 (KM12) was > 100 µM (inactive), the GI50 (NCI-H460) was > 100 µM (inactive) and the GI50 (SF-268) was > 100 µM (inactive) and 73.5 µM (inactive). The GI50 (K562) was > 100 µM (inactive), the GI50 (SR) was > 100 µM (inactive) and the GI50 (OVCAR-8) was > 100 µM (inactive). The GI50 (Malme-3M) was > 100 µM (inactive), the GI50 (SK-MEL-28) was > 100 µM (inactive) and the GI50 (SK-MEL-5) was > 100 µM (inactive). For the same compound, the GI50 (IGROV-1) was > 100 µM (inactive), the GI50 (HL-60) was > 100 µM (inactive) and the GI50 (SW-620) was > 100 µM (inactive). For the same compound, the GI50 (CAKI-1) was > 100 µM (inactive), the GI50 (COLO 205) was > 100 µM (inactive) and the GI50 (MDA-MB-435) was > 100 µM (inactive). The GI50 (EKVX) was 87.1 µM (inactive), the GI50 (SNB-75) was 0.0113 µM (active) and the GI50 (MDA-N) was > 100 µM (inactive). For the same compound, the GI50 (HT-29) was > 100 µM (inactive), the GI50 (NCI-H522) was > 100 µM (inactive) and 52.8 µM (inactive) and the GI50 (CCRF-CEM) was > 100 µM (inactive). For the same compound, the GI50 (NCI/ADR-RES) was > 100 µM (inactive), the GI50 (HCC 2998) was > 100 µM (inactive) and the GI50 (UACC-257) was > 100 µM (inactive). For the same compound, the GI50 (OVCAR-3) was > 100 µM (inactive), the GI50 (MOLT-4) was > 100 µM (inactive) and the GI50 (SK-MEL-2) was 13 µM (inactive). For the same compound, the GI50 (SN12C) was > 100 µM (inactive), the GI50 (NCI-H23) was > 100 µM (inactive) and the GI50 (LOX IMVI) was > 100 µM (inactive). For the same compound, the GI50 (DU-145) was > 100 µM (inactive), the GI50 (M14) was 39.4 µM (inactive) and 46.2 µM (inactive) and the GI50 (A549) was 92.9 µM (inactive). The GI50 (T47D) was > 100 µM (inactive), the GI50 (MCF7) was > 100 µM (inactive) and the GI50 (HCT-15) was greater than 100 µM. For the same compound, the GI50 (OVCAR-4) was > 100 µM (inactive) and 80.7 µM (inactive).
With `CCN1CCCC(C#N)(c2ccccc2)CC1` (centres undefined) the GI50 (KM12) was > 100 µM (inactive), the GI50 (NCI-H460) was > 100 µM (inactive) and the GI50 (TK-10) was > 100 µM (inactive). The GI50 (SF-268) was > 100 µM (inactive), the GI50 (K562) was > 100 µM (inactive) and the GI50 (SR) was > 100 µM (inactive). For the same compound, the GI50 (OVCAR-8) was > 100 µM (inactive), the GI50 (Malme-3M) was > 100 µM (inactive) and the GI50 (SF-295) was > 100 µM (inactive). The GI50 (SK-MEL-28) was > 100 µM (inactive), the GI50 (Hs-578T) was 61.7 µM (inactive) and the GI50 (U-251) was > 100 µM (inactive). The GI50 (SK-MEL-5) was > 100 µM (inactive), the GI50 (ACHN) was > 100 µM (inactive) and the GI50 (786-0) was > 100 µM (inactive). The GI50 (IGROV-1) was > 100 µM (inactive), the GI50 (HL-60) was > 100 µM (inactive) and the GI50 (SW-620) was > 100 µM (inactive). For the same compound, the GI50 (CAKI-1) was > 100 µM (inactive), the GI50 (COLO 205) was > 100 µM (inactive) and the GI50 (HOP-62) was > 100 µM (inactive). The GI50 (EKVX) was > 100 µM (inactive), the GI50 (SNB-75) was 99.5 µM (inactive) and the GI50 (MDA-N) was > 100 µM (inactive). The GI50 (HT-29) was > 100 µM (inactive), the GI50 (HCT-116) was > 100 µM (inactive) and the GI50 (CCRF-CEM) was > 10 µM (inactive). The GI50 (NCI/ADR-RES) was > 100 µM (inactive), the GI50 (HCC 2998) was > 100 µM (inactive) and the GI50 (UACC-257) was > 100 µM (inactive). For the same compound, the GI50 (MOLT-4) was > 100 µM (inactive), the GI50 (OVCAR-5) was > 100 µM (inactive) and the GI50 (RPMI-8226) was > 100 µM (inactive). For the same compound, the GI50 (NCI-H23) was > 100 µM (inactive), the GI50 (A498) was > 100 µM (inactive) and the GI50 (DU-145) was > 100 µM (inactive). The GI50 (UO-31) was > 100 µM (inactive), the GI50 (PC-3) was > 100 µM (inactive) and the GI50 (M14) was > 100 µM (inactive). The GI50 (A549) was > 100 µM (inactive), the GI50 (T47D) was > 100 µM (inactive) and the GI50 (SNB-19) was > 100 µM (inactive). For the same compound, the GI50 (HOP-92) was > 100 µM (inactive), the GI50 (SK-OV-3) was > 100 µM (inactive) and the GI50 (HCT-15) was greater than 100 µM. For the same compound, the GI50 (RXF 393) was > 100 µM (inactive) and the GI50 (OVCAR-4) was > 100 µM (inactive).
